Results reported in US20050282751A1, “Therapeutic agent for renal anemia” (Ajinomoto Co., Inc., priority 2004, published 2005).

Assays:
[1] = test system: patients with renal anemia; assay: Clinical test: erythropoietin in blood, ELISA; assay type: in vivo, human
Excerpt: (§1) 1.3 g of an amino acid preparation (trade name: Argi U granules, a product of Ajinomoto Pharma Co. Ltd.) (1.0 g of arginine) was orally administered in two portions everyday to each of 8 patients having an illness diagnosed as renal anemia (cases of chronic renal failure in conservative stage accompanying renal anemia, whose age, hemocytometric results and results of general biochemical tests are shown in Table 1). The administration period was at the longest 18 weeks. The amount of each of hemoglobin, BUN (blood urea nitrogen), Cre (creatinine), Fe and erythropoietin in blood was determined by methods described below.
Erythropoietin was determined by ELISA method.

[2] = test system: patients with renal anemia; assay: Clinical test: hemoglobin in patients with renal anemia, oral Argi U granules; assay type: in vivo, human
Experimental: The administration period was at the longest 18 weeks. The amount of each of hemoglobin, BUN (blood urea nitrogen), Cre (creatinine), Fe and erythropoietin in blood was determined by methods described below.
Hemoglobin was determined with an automatic blood cell analysis device.
The hemoglobin concentration of each case determined before and after the administration of the amino acid preparation is shown in Table 2.
For typical three patients, a change in hemoglobin concentration was given as ΔHb value (amount of change of hemoglobin) calculated by deducting the hemoglobin concentration before the administration of the amino acid preparation from the hemoglobin concentration after the administration thereof in FIG. 1.

[3] = test system: patients with renal anemia; assay: Clinical test: side effects; assay type: in vivo, human
Experimental: as §1, with “arginine) was orally administered in two portions everyday to each of 8 patients having an illness diagnosed as renal anemia (cases of chronic renal failure” left out

[4] = test system: patients with renal anemia; assay: Clinical test: Cre (creatinine), enzymatic method; assay type: in vivo, human; conditions: effective cases 1, 2, 4 and 6
Excerpt: as §1
Cre was determined by an enzymatic method (sarcosine oxidase[…]POD method).

[5] = test system: patients with renal anemia; conditions: conventional treatment with rHuEPO preparation; cited from earlier work

| Compound | EPO concentration in blood relative to rHuEPO preparation treatment ([1]; L-arginine versus conventional rHuEPO treatment) | EPO concentration in blood, at the highest ([1]; after the administration of L-arginine) | Epo productivity (Epo concentration in blood) ([1]; all the effective cases) | Epo productivity (Epo concentration in blood) ([1]; the two ineffective cases) | anemia after discontinuance of administration ([2]; 2 cases in the 7 effective cases) | Hb after further administration ([2]; 2.6 g/day for 1 month, increased from 10.7 g/dl) [g/dL] | judgement of results ([2]; cases 1 to 7) | judgement of results ([2]; cases 8 and 9) | Hb after discontinuance of administration ([2]; other 3 effective cases) | side effect ([3]; 9 administration cases) | side effect ([3]; further administration of 2.6 g/day for 1 month) | renal function [4] | EPO concentration in blood [5] |
| --- | --- | --- | --- | --- | --- | --- | --- | --- | --- | --- | --- | --- | --- |
| N=C(N)NCCC[C@H](N)C(=O)O [L-arginine] | less than ⅙ | about 20 mU/mL | increased | lowered | anemia became worse | 11.5 | effective | ineffective | Hb was not lowered | No evident side effect | no obvious side effect | recovery of the renal function was recognized |  |
| rHuEPO preparation: recombinant erythropoietin preparation, conventional treatment of renal anemia |  |  |  |  |  |  |  |  |  |  |  |  | about 130 mU/mL |
